Data from patent publication US20090203610A1, “METHODS OF TREATING OBESITY OR DIABETES USING NT-4/5” (RINAT NEUROSCIENCE CORPORATION, priority 2004, published 2009).

Key:
[1] = test system: db/db mice; experiment: HbA1c in db/db mice (Example 1); assay type: in vivo
Protocol: (§1) A difference was considered significant for p<0.05.
HbA1c levels were determined using an HbA1c kit (ref. 650262, Beckman Coulter, France) and a Synchron CX4 synchronizer. HbA1c is an indicator for blood glucose control over the last 2-3 months. The normal level of HbA1c in C57BL/6J mouse (determined by measuring 8 normal healthy C57BL/6J mice) was about 3.5%.

[2] = test system: db/db mice; experiment: Blood triglyceride levels in db/db mice (Example 1); assay type: in vivo; conditions: NT-4/5 20 mg/kg s.c., Rosiglitazone 3 mg/kg p.o.
Protocol: Test animals: 24 female 10-12 weeks old db/db mice (C57BL/Ks J Rj-db/db, Janvier, France), weighing in the target range of 40-50 g, were used in this study. […] Upon receipt at animal facilities, they were housed 4 per cage covered with filtered caps and at least a 5-day acclimation period was observed.
(§3) The mice were divided into three groups of 8 mice each (groups 1-3). Each group was treated with vehicle (PBS) subcutaneously (s.c.), 3 mg/kg Rosiglitazone orally (p.o.), or 20 mg/kg NT-4/5 subcutaneously (s.c.). From day 1 to day 5 (T1-T5) and then from day 8 to day 12 (T8-T12), the mice in groups 2 and 3 were dosed once daily for 5 consecutive days, with a volume of 10 ml/kg.
Collection of samples for analysis: One day before beginning the treatment (T0), non fasted db/db mice were weighed and blood samples were collected through the retro-orbital plexus (about 300 μL/mouse) under isoflurane anesthesia. Similarly, at day 5 (T5), day 12 (T12), day 19 (T19) and day 26 (T26), two hours after the last administration, blood samples were collected through the retro-orbital plexus under isoflurane anesthesia in non fasted mice. […] An aliquot of serum was used for measuring glucose levels, the remaining was frozen until use.
(§4) Analysis of blood samples in db/db mice: Pre- and post dose serum levels of glucose, HbA1c, cholesterol and triglycerides, insulin, and non esterified fatty acids (NEFA), as well as aspirate amino-transferase (AST) and alanine amino-transferase activities (ALT) activities, were determined at different time points, as described further herein. At each time point and for each parameter, a mean % of the effect was calculated according to the following formula: ((T final−T initial)/T initial)*100. Statistical analysis was consistent in a one-way analysis of variance followed by multiple comparisons versus the vehicle group (Dunnett's test) on final values. In case the equal variance test fails, a Kruskall-Wallis one-way analysis of variance on ranks was conducted. A difference was considered significant for p<0.05.

[3] = test system: db/db mice; experiment: Total blood cholesterol levels in db/db mice (Example 1); assay type: in vivo; conditions: NT-4/5 20 mg/kg s.c., Rosiglitazone 3 mg/kg p.o.
Protocol: as §1
The blood triglyceride level and the total blood cholesterol level were determined with a triglyceride assay kit (ref 445850, Beckman Coutler, France) and a total cholesterol kit (ref 467825, Beckman Coutler, France), respectively, using a Synchron CX4 analyzer.

[4] = test system: db/db mice; experiment: Serum nonesterified fatty acids (NEFA) in db/db mice (Example 1); assay type: in vivo; conditions: NT-4/5 20 mg/kg s.c., Rosiglitazone 3 mg/kg p.o.
Protocol: as §1
Serum nonesterified fatty acids (NEFA) levels were determined by calorimetric method using a non esterified fatty acids kit (ref. FA 15, Randox, France).

[5] = test system: db/db mice; experiment: Blood insulin level by ELISA in db/db mice (Example 1); assay type: in vivo; conditions: NT-4/5 20 mg/kg s.c., Rosiglitazone 3 mg/kg p.o.
Protocol: as §1
The blood insulin level was determined by ELISA using an Insulin ELIT Plus kit (ref. INSRAT01-8N, Eurobio, France).

[6] = test system: db/db mice; experiment: Body weight of db/db mice (Example 1); assay type: in vivo; conditions: NT-4/5 20 mg/kg s.c., Rosiglitazone 3 mg/kg p.o.
Protocol: (§2) Throughout the experiment period (T1-T26), daily individual body weights as well as food intake per cage were measured.

[7] = test system: db/db mice; experiment: Food intake of db/db mice (Example 1); assay type: in vivo; conditions: NT-4/5 20 mg/kg s.c., Rosiglitazone 3 mg/kg p.o.
Protocol: as §2

[8] = test system: db/db mice; experiment: Serum transaminase (AST, ALT) activity in db/db mice (Example 1); conditions: NT-4/5 20 mg/kg s.c., Rosiglitazone 3 mg/kg p.o.
Protocol: Test animals: 24 female 10-12 weeks old db/db mice (C57BL/Ks J Rj-db/db, Janvier, France), weighing in the target range of 40-50 g, were used in this study. These mice were housed in a temperature (19.5-24.5° C.) and relative humidity (45-65%) controlled room with a 12-hour light/dark cycle, with ad libitum access to filtered tap-water and irradiated pelleted laboratory chow (SAFE, France) throughout the study. Upon receipt at animal facilities, they were housed 4 per cage covered with filtered caps and at least a 5-day acclimation period was observed.
as §3
Collection of samples for analysis: One day before beginning the treatment (T0), non fasted db/db mice were weighed and blood samples were collected through the retro-orbital plexus (about 300 μL/mouse) under isoflurane anesthesia. Similarly, at day 5 (T5), day 12 (T12), day 19 (T19) and day 26 (T26), two hours after the last administration, blood samples were collected through the retro-orbital plexus under isoflurane anesthesia in non fasted mice.
as §4
Aspartate amino-transferase (AST) and alanine amino-transferase (ALT) activities were determined with an AST kit (ref. 442665, Beckman Coulter, France), an ALT kit (ref. 442620, Beckman Coulter, France), using a Synchron CX4 analyzer.

In the case of `CN(CCOc1ccc(CC2SC(=O)NC2=O)cc1)c1ccccn1` (stereo not shown) [Rosiglitazone, reference compound], the “HbA1c level decrease at T12” value ([1]; T12 vs T0) is reported as 1%, the “HbA1c level decrease at T26” value ([1]; T26 as compared to T0) is reported as 9.6% and the “HbA1c T0” value ([1]; day 0, before treatment, NT-4/5 20 mg/kg s.c., Rosiglitazone 3 mg/kg p.o.) is reported as 5.74%. For the same molecule, the “HbA1c T12” value ([1]; day 12, NT-4/5 20 mg/kg s.c., Rosiglitazone 3 mg/kg p.o.) was 5.69%, the “HbA1c % effect T12-T0” value ([1]; day 12 vs day 0, NT-4/5 20 mg/kg s.c., Rosiglitazone 3 mg/kg p.o.) was −1.0% and the “HbA1c T26” value ([1]; day 26, NT-4/5 20 mg/kg s.c., Rosiglitazone 3 mg/kg p.o.) was 5.18%. For the same molecule, the “HbA1c % effect T26-T0” value ([1]; day 26 vs day 0, NT-4/5 20 mg/kg s.c., Rosiglitazone 3 mg/kg p.o.) was −9.6%, the “triglycerides levels T0” value ([2]; day 0, before treatment) was 1.39 mM and the “triglycerides levels T5” value ([2]; day 5) was 0.81 mM. For the same molecule, the “triglycerides % effect T5-T0” value ([2]; day 5 vs day 0) was −30.1%, the “triglycerides levels T12” value ([2]; day 12) was 0.61 mM and the “triglycerides % effect T12-T0” value ([2]; day 12 vs day 0) was −51.0%. The “triglycerides levels T19” value ([2]; day 19) was 0.64 mM, the “triglycerides % effect T19-T0” value ([2]; day 19 vs day 0) was −46.1% and the “triglycerides levels T26” value ([2]; day 26) was 1.58 mM. For the same molecule, the “triglycerides % effect T26-T0” value ([2]; day 26 vs day 0) was 23.4%, the “cholesterol levels T0” value ([3]; day 0, before treatment) was 3.27 mM and the “cholesterol levels T5” value ([3]; day 5) was 3.48 mM. The “cholesterol % effect T5-T0” value ([3]; day 5 vs day 0) was 6.5%, the “cholesterol levels T12” value ([3]; day 12) was 3.25 mM and the “cholesterol % effect T12-T0” value ([3]; day 12 vs day 0) was −0.3%. For the same molecule, the “cholesterol levels T19” value ([3]; day 19) was 3.01 mM, the “cholesterol % effect T19-T0” value ([3]; day 19 vs day 0) was −7.5% and the “cholesterol levels T26” value ([3]; day 26) was 3.05 mM. The “cholesterol % effect T26-T0” value ([3]; day 26 vs day 0) was −6.7%, the “NEFA levels T0” value ([4]; day 0, before treatment) was 0.782 mM and the “NEFA levels T5” value ([4]; day 5) was 0.507 mM. The “NEFA % effect T5-T0” value ([4]; day 5 vs day 0) was −32.8%, the “NEFA levels T12” value ([4]; day 12) was 0.444 mM and the “NEFA % effect T12-T0” value ([4]; day 12 vs day 0) was −39.9%. For the same molecule, the “NEFA levels T19” value ([4]; day 19) was 0.739 mM, the “NEFA % effect T19-T0” value ([4]; day 19 vs day 0) was −2.2% and the “NEFA levels T26” value ([4]; day 26) was 0.345 mM. For the same molecule, the “NEFA % effect T26-T0” value ([4]; day 26 vs day 0) was −53.7%, the “insulin levels T0” value ([5]; day 0, before treatment) was 6.93 nM and the “insulin levels T5” value ([5]; day 5) was 3.94 nM. For the same molecule, the “insulin % effect T5-T0” value ([5]; day 5 vs day 0) was −37.0%, the “insulin levels T12” value ([5]; day 12) was 2.85 nM and the “insulin % effect T12-T0” value ([5]; day 12 vs day 0) was −51.8%. The “insulin levels T19” value ([5]; day 19) was 7.30 nM, the “insulin % effect T19-T0” value ([5]; day 19 vs day 0) was 14.4% and the “insulin levels T26” value ([5]; day 26) was 6.33 nM. The “insulin % effect T26-T0” value ([5]; day 26 vs day 0) was −5.7%, the “body weight, mean” value ([6]; Day 0) was 42.3 g and the “body weight expressed as % of baseline, mean” value (“body weight expressed as %” below) ([6]; Day 1) was 98.3 % of baseline. The “body weight, mean” value ([6]; Day 1) was 41.6 g, the “body weight expressed as %” value ([6]; Day 2) was 99.5 % of baseline and the “body weight, mean” value ([6]; Day 2) was 42.1 g. For the same molecule, the “body weight expressed as %” value ([6]; Day 3) was 100.0 % of baseline, the “body weight, mean” value ([6]; Day 3) was 42.3 g and the “body weight expressed as %” value ([6]; Day 4) was 100.8 % of baseline. The “body weight, mean” value ([6]; Day 4) was 42.7 g, the “body weight expressed as %” value ([6]; Day 5) was 102.2 % of baseline and the “body weight, mean” value ([6]; Day 5) was 43.3 g. For the same molecule, the “body weight expressed as %” value ([6]; Day 6) was 100.6 % of baseline, the “body weight, mean” value ([6]; Day 6) was 42.6 g and the “body weight expressed as %” value ([6]; Day 7) was 101.1 % of baseline. For the same molecule, the “body weight, mean” value ([6]; Day 7) was 42.8 g, the “body weight expressed as %” value ([6]; Day 8) was 102.3 % of baseline and the “body weight, mean” value ([6]; Day 8) was 43.3 g. The “body weight expressed as %” value ([6]; Day 9) was 103.8 % of baseline, the “body weight, mean” value ([6]; Day 9) was 43.9 g and the “body weight expressed as %” value ([6]; Day 10) was 104.2 % of baseline. For the same molecule, the “body weight, mean” value ([6]; Day 10) was 44.1 g, the “body weight expressed as %” value ([6]; Day 11) was 104.9 % of baseline and the “body weight, mean” value ([6]; Day 11) was 44.4 g. For the same molecule, the “body weight expressed as %” value ([6]; Day 12) was 106.3 % of baseline, the “body weight, mean” value ([6]; Day 12) was 45.0 g and the “body weight expressed as %” value ([6]; Day 13) was 104.9 % of baseline. For the same molecule, the “body weight, mean” value ([6]; Day 13) was 44.4 g, the “body weight expressed as %” value ([6]; Day 14) was 105.1 % of baseline and the “body weight, mean” value ([6]; Day 14) was 44.5 g. The “body weight expressed as %” value ([6]; Day 15) was 104.9 % of baseline, the “body weight, mean” value ([6]; Day 15) was 44.4 g and the “body weight expressed as %” value ([6]; Day 18) was 105.5 % of baseline. The “body weight, mean” value ([6]; Day 18) was 44.7 g, the “body weight expressed as %” value ([6]; Day 19) was 106.0 % of baseline and the “body weight, mean” value ([6]; Day 19) was 44.9 g. The “body weight expressed as %” value ([6]; Day 20) was 104.3 % of baseline, the “body weight, mean” value ([6]; Day 20) was 44.2 g and the “body weight expressed as %” value ([6]; Day 21) was 105.3 % of baseline. The “body weight, mean” value ([6]; Day 21) was 44.6 g, the “body weight expressed as %” value ([6]; Day 22) was 105.1 % of baseline and the “body weight, mean” value ([6]; Day 22) was 44.5 g. The “body weight expressed as %” value ([6]; Day 25) was 106.7 % of baseline, the “body weight, mean” value ([6]; Day 25) was 45.2 g and the “body weight expressed as %” value ([6]; Day 26) was 106.9 % of baseline. For the same molecule, the “body weight, mean” value ([6]; Day 26) was 45.3 g, the “food intake, mean” value ([7]; Day 1) was 100.8 g/kg/day and the “food intake, mean” value ([7]; Day 2) was 124.9 g/kg/day. For the same molecule, the “food intake, mean” value ([7]; Day 3) was 137.8 g/kg/day, the “food intake, mean” value ([7]; Day 5) was 143.1 g/kg/day and the “food intake, mean” value ([7]; Day 6) was 63.4 g/kg/day. The “food intake, mean” value ([7]; Day 7) was 96.6 g/kg/day, the “food intake, mean” value ([7]; Day 8) was 129.1 g/kg/day and the “food intake, mean” value ([7]; Day 9) was 139.3 g/kg/day. The “food intake, mean” value ([7]; Day 10) was 140.2 g/kg/day, the “food intake, mean” value ([7]; Day 11) was 128.1 g/kg/day and the “food intake, mean” value ([7]; Day 12) was 114.4 g/kg/day. The “food intake, mean” value ([7]; Day 13) was 98.3 g/kg/day, the “food intake, mean” value ([7]; Day 14) was 129.1 g/kg/day and the “food intake, mean” value ([7]; Day 15) was 100.3 g/kg/day. The “food intake, mean” value ([7]; Day 18) was 108.2 g/kg/day, the “food intake, mean” value ([7]; Day 19) was 102.0 g/kg/day and the “food intake, mean” value ([7]; Day 20) was 90.5 g/kg/day. The “food intake, mean” value ([7]; Day 21) was 129.9 g/kg/day, the “food intake, mean” value ([7]; Day 22) was 122.3 g/kg/day and the “food intake, mean” value ([7]; Day 25) was 125.4 g/kg/day. For the same molecule, the “food intake, mean” value ([7]; Day 26) was 109.2 g/kg/day, the “ALT T0” value ([8]; day 0, before treatment) was 157.5 IU/L and the “ALT/AST ratio T0” value ([8]; day 0, before treatment) was 1.00. The “AST T0” value ([8]; day 0, before treatment) was 185.8 IU/L, the “ALT T5” value ([8]; day 5) was 172.3 IU/L and the “ALT/AST ratio T5” value ([8]; day 5) was 1.03. The “AST T5” value ([8]; day 5) was 174.0 IU/L, the “ALT % effect T5-T0” value ([8]; day 5 vs day 0) was 12.7% and the “ALT/AST ratio % effect T5-T0” value ([8]; day 5 vs day 0) was 16.4%. The “AST % effect T5-T0” value ([8]; day 5 vs day 0) was 8.2%, the “ALT T12” value ([8]; day 12) was 222.0 IU/L and the “ALT/AST ratio T12” value ([8]; day 12) was 1.13. The “AST T12” value ([8]; day 12) was 200.5 IU/L, the “ALT % effect T12-T0” value ([8]; day 12 vs day 0) was 43.6% and the “ALT/AST ratio % effect T12-T0” value ([8]; day 12 vs day 0) was 30.4%. The “AST % effect T12-T0” value ([8]; day 12 vs day 0) was 19.9%, the “ALT T19” value ([8]; day 19) was 179.0 IU/L and the “ALT/AST ratio T19” value ([8]; day 19) was 1.31. The “AST T19” value ([8]; day 19) was 148.5 IU/L, the “ALT % effect T19-T0” value ([8]; day 19 vs day 0) was 16.6% and the “ALT/AST ratio % effect T19-T0” value ([8]; day 19 vs day 0) was 52.2%. For the same molecule, the “AST % effect T19-T0” value ([8]; day 19 vs day 0) was −6.9%, the “ALT T26” value ([8]; day 26) was 144.3 IU/L and the “ALT/AST ratio T26” value ([8]; day 26) was 1.05. For the same molecule, the “AST T26” value ([8]; day 26) was 143.0 IU/L, the “ALT % effect T26-T0” value ([8]; day 26 vs day 0) was −10.1% and the “ALT/AST ratio % effect T26-T0” value ([8]; day 26 vs day 0) was 17.1%. The “AST % effect T26-T0” value ([8]; day 26 vs day 0) was −13.8%.
